Test results reported in patent publication EP0925064B1, “5-ANDROSTENE 3 beta,17alpha DIOL AS AN INHIBITOR OF TUMOR GROWTH” (LORIA, Roger M., priority 1996, dated 1997).

Tests used:
ZR-75-1 cells [1] = experiment: Cell proliferation assay (3H-thymidine incorporation, 6 days); type: cell-based, human; details: for cell proliferation (Example 1): six day period
Procedure: The ZR-75-1 cell line (passage 89) was obtained from the American Type Culture Collection (Rockville, Maryland). The cells were cultured in RPMI-1640 medium containing 10% heat-inactivated fetal calf serum, 200 µM L-glutamine, […], 1.5 U/ml penicillin, and 1.5 µg/ml streptomycin in 5% CO2 at 37°C. The cells were passaged twice weekly.
(§1) Cells were first seeded at initial density of 1x10^5 cells per ml in quadruplicates in 24 multi-well flat bottom plates (Costar). Cells were then allowed to adhere and grow in phenol red-free […] media supplemented with 10 % heat-inactivated fetal calf serum (FCS), 200 µM L-glutamine, 10 mM HEPES, 2.5 U/ml penicillin and 2.5 µg/ml streptomycin in 5% CO2 at 37°C. After 48 hours, four wells were sacrificed and counted to determine plating efficiency. In the remaining wells, medium was removed by aspiration and cells in each well were exposed to the media containing the specified steroid. The controls containing only medium or medium with vehicle were also prepared. In all samples, medium was changed every 48 hours. At the pre-established time-point. Cells were removed by trypsinization and washed. Cell number and viability were determined by trypan blue exclusion using a hemocytometer. Parallel cultures were also run to determine cell proliferation.
(§2) For cell proliferation assays, cell suspensions were prepared by trypsinization of cells from cultures prepared in accord with methods described above. Cell viability was determined by trypan blue exclusion. The cells were then seeded in flat-bottom 96-well microtiter plates at a density of 2X10^3 cells/well and were allowed to rest for 48 hours in order to adhere. Non-adherent dead cells were removed by aspiration. Cells were then grown in media without phenol red. Some of the media contained supplements as indicated above. The active agents or vehicle control were added to the media. The cells were then grown for six days. Media was changed on the samples every 48 hours. On day 6, cells were pulsed with 1 µCi[…] for the last 6 hours of incubation before harvesting onto glass filter using a HPD cell harvester (Cambridge Technology, Watertown, Massachusetts) and counted on a KLB scintillation counter.
(§3) Initial tests were carried out to determine the optimal (maximal) dose of αAED required to inhibit growth of the ZR-75-1 cells in in vitro as determined by tritiated tymidine incorporation. […] To ensure that inhibition was not due to cytotoxicity, cell count and viability were assessed by trypan blue exclusion.
ZR-75-1 cells (2X10^3) were treated as described above over a six day period with differing concentrations of αAED or with vehicle-only cultures. The medium was changed every 48 hours. Cells were pulsed with ^3H-thymidine for the last six hours of incubation.

ZR-75-1 cells [2] = experiment: Cell count and viability by trypan blue exclusion; type: cell-based, human
Procedure: as §1, §3

P388D1 cells = experiment: Growth of lymphoid neoplasm cells in the presence of RU486; type: cell-based; details: RU486 at 0.5 µM and 1.0 µM
Procedure: as §2
Effect of αAED on growth of lymphoid neoplasm (P388D1 cells obtained from the American Type Culture Collection) in the presence of RU486 at concentration of 0.5 µM and 1.0 µM was studied in accord with the methods described above.

RAW 264.7 = experiment: Proliferation of macrophage myeloma cells; type: cell-based, murine
Procedure: as §2
Effects of αAED at doses of 50 ηM and 100 ηM doses on murine macrophage myeloma cells (RAW 264.7, obtained from the American Type Culture Collection) was studied.

| SMILES | proliferation in the presence of estradiol (Example 3) (ZR-75-1 cells [1]; 1 ηM estradiol, higher doses of αAED, 6 day period) | cell proliferation (Example 1) (ZR-75-1 cells [1]; 6.25 ηM) | cell proliferation (Example 1) (ZR-75-1 cells [1]; 25 ηM) | cell proliferation (Example 1) (ZR-75-1 cells [1]; 50 ηM) | maximal dose of anti-proliferative effect (ZR-75-1 cells [1]; ZR-75-1 cells, 6 days) | growth of ZR-75-1 cells (ZR-75-1 cells [1]; concentration of 25 nM or greater) | proliferation of ZR-75-1 cells compared with the vehicle control (ZR-75-1 cells [1]; concentrations between 6.25 and 12.5 ηM (P<0.01)) | effect on the growth of ZR-75-1 cells compared to vehicle control (ZR-75-1 cells [1]; doses ranging from 3.13 ηM to 50 ηM, after 6 days) | proliferation of cells in the presence of RU486 (Example 5) (ZR-75-1 cells [1]; αAED with 0.5 µM RU486) | proliferation of cells in the presence of βAED (Example 2) (ZR-75-1 cells [1]; βAED constant at 2.5 ηM, all concentrations of αAED) | antiproliferative effects in the presence of Flutamide (Example 4) (ZR-75-1 cells [1]; ≥6.25 ηM αAED, with Flutamide, 6 day period) | cytotoxicity (cell count and viability) (ZR-75-1 cells [2]) | growth of lymphoid neoplasm in the presence of RU486 (Example 8) (P388D1 cells) | proliferation of murine macrophage myeloma cells (Example 9) (RAW 264.7; 50 ηM) | proliferation of murine macrophage myeloma cells (Example 9) (RAW 264.7; 100 ηM) | antiproliferative effect on the growth of the ZR-75-1 cells (ZR-75-1 cells [1]; alone at 100 ηM) |
| --- | --- | --- | --- | --- | --- | --- | --- | --- | --- | --- | --- | --- | --- | --- | --- | --- |
| C[C@]12CC[C@H]3[C@@H](CC=C4C[C@@H](O)CC[C@@]43C)[C@@H]1CC[C@H]2O [αAED, 5-androstene 3β,17α diol] | suppressed proliferation | increasing proliferation | decreasing cell proliferation | marked decrease | 100 ηM | significantly inhibited the growth | stimulated proliferation | biphasic effect | synergistic action to decrease proliferation of cells | decreased proliferation | greatly enhanced | not toxic | increased effectiveness over use of one agent | significant inhibition of proliferation | significant inhibition of proliferation |  |
| C[C@]12CC[C@H]3[C@@H](CC=C4C[C@@H](O)CC[C@@]43C)[C@@H]1CC[C@@H]2O [βAED, 5-androstene 3β,17β diol, reference compound] |  |  |  |  |  |  |  |  |  |  |  |  |  |  |  | did not have any antiproliferative effect |
